Test results published in patent US20110123623A1, “RHAMNOLIPID MECHANISM” (priority 2009, published 2011).
Read-outs that look alike come from different tables or passages of the source.

Assays:
in vivo = conditions: female, Swiss-Webster, mouse, iv
Description: (§1) Maximum tolerated doses of di-rhamnolipid W3CTS were administered intravenously in female Swiss-Webster mice.
(§2) Female Swiss-Webster mice obtained from the Houston, Tex. site Harlan Sprague Dawley, Inc were used in the study. All mice were divided into 6 groups. The vehicle and Di-rhamnolipid W3CTS were administered as an intravenous bolus, via tail vein, beginning with lowest dose level (75 mg/kg). […] In this study, the maximum tolerated dose of di-rhamnolipid W3CTS in female Swiss-Webster mice was 120 mg/kg. Three mice (LD50) of the next higher dose tested (135 /mg/kg) died immediately upon administration.

[1] = test system: female Swiss-Webster mice; assay: in vivo; conditions: mouse
Description: as §1, §2

[2] = Micronucleus test in-vivo
[3] = test system: Guinea pig lung LTC4 synthetase; assay: Leukotriene C4 synthetase inhibition (EIA); type: biochemical; conditions: highest concentration 1,000 μM/ml; DMSO 0.5%
Description: Leukotriene C4 (LTC4) synthetase is involved in the formation of LTC4 from LTA4. Taken together with other assays for enzymes involved in the lipoxygenase pathway (e.g. 5-lipoxygenase, LTA4 hydrolase), a locus of action can be established for agents which inhibit the formation of leukotrienes. Guinea pig lung LTC4 synthetase was used. Test compound and/or vehicle was pre-incubated with 180 μg/ml enzyme in phosphate buffer pH 7.8 for 15 minutes at 37° C. The reaction is initiated by the addition of 2.5 μg/ml LTA4 methyl ester for another 30 minute incubation period and terminated by further addition of ice-cold methanol. Determination of the amount of LTC4 formed is read spectrophotometrically by enzyme immunoassay kit (EIA). W3CTS was screened at 1,000; 100; 10; and 1 μM/ml. Solvent was DMSO 0.5%. Sulfazine was used as a reference. Inhibition was 81% at the highest concentration of 1,000 μM/ml.

[4] = test system: female Swiss-Webster mice; type: in vivo; conditions: for MORTAL. / SIGNIFICANT FINDINGS: 7 days
Description: Multi-dose toxicity study of Di-rhamnolipid W3CTS administered subcutaneously in female Swiss-Webster mice for 7 days recovery period. The effects of 7 daily subcutaneous injections of the 99.3% pure Di-rhamnolipid W3CTS, followed by 7-day recovery period, were determined in female Swiss-Webster mice. Five groups (3 mice per group) were administered W3CTS doses at 0.012; 1, 2; 60 and 120 mg/kg/day and vehicle. All animals were observed and weighed throughout the study for clinical signs of toxicity including skin injection sites. On study Day 13 (seven days after last injection, 6 days for group 5) all animals were euthanized. The thymus, liver, kidneys, spleen, heart and lungs were weighed and preserved.
No mortality occurred at any dose level. […] Abnormal clinical observations at some animals at groups (60 and 120 mg/kg) were limited to skin lesions at the injection sites. All skin lesions were healing at termination.
At necropsy, two animals from group 120 mg/kg had moderate enlargement of the spleen and liver and adhesions between liver, spleen, kidneys and peritoneum were seen also in one animal (See Table 1).
Histopathology of spleen, thymus, and liver and selected skin site lesions was performed on tissues from high dose group animals and one control. […] Histopathologic features of skin lesions included evidence of chronic active inflammation, co-existing with progressing ulceration and/or healing.

[5] = biological target: human dopamine D2L (human recombinant) (Homo sapiens, UniProt P14416); assay: Dopamine D2L receptor binding of [3H]Spiperone; conditions: 100 μM in 0.5 DMSO
Description: (§3) At the concentration of 100 μM Di-rhamnolipid W3CTS in 0.5% DMSO, Di-rhamnolipid W3CTS inhibited 100% dopamine D1 (human recombinant) binding of [^3H] SCH23390. At the same concentration of 100 μM W3CTS in 0.5 DMSO measuring binding of [^3H]Spiperone to human dopamine D2L (human recombinant) was inhibited by 53%.

C. albicans = assay: Immunorestoration activity: cyclophosphamide immunosuppression and C. albicans challenge; type: in vivo, mouse; conditions: 100 mg/kg i/p days 1, 3, 5, cyclophosphamide 30 mg/kg p/o days 2, 4, 6
Description: Di-rhamnolipid W3CTS was administered i/p. (100 mg/kg) to groups of ICR derived male mice weighing 22±2 g on days 1, 3, and 5, with the immunosuppressant cyclophosphamide (30 mg/kg p/o.) administered on days 2, 4, and 6. One day after the last immunosuppressant dose, the mice were challenged with a suspension of C. Albicans sufficient to result in 90-100% mortality within 10 days in vehicle treated animals. Survival of 30 percent or more (≧30) of the animals was considered significant and indicated possible immunorestoration activity. Reference agent was lipopolysaccharide 0.3 mg/kg i/p.

[6] = biological target: dopamine D1 (human recombinant) (Homo sapiens, UniProt P21728); assay: Dopamine D1 receptor binding of [3H]SCH23390; conditions: 100 μM in 0.5% DMSO
Description: as §3

Sequence of human dopamine D2L (human recombinant) (P14416 whole entry): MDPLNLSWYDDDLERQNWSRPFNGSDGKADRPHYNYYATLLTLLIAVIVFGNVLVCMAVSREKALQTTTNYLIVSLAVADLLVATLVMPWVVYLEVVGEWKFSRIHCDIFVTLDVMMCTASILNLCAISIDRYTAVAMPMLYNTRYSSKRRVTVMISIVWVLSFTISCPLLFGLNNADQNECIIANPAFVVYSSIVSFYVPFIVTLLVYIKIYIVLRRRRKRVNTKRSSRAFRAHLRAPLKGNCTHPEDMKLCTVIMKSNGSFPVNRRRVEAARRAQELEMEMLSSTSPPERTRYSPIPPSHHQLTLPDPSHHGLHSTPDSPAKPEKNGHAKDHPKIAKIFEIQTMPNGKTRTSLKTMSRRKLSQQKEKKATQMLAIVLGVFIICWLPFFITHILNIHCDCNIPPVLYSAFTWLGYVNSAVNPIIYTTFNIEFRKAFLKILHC
Sequence of dopamine D1 (human recombinant) (P21728 whole entry): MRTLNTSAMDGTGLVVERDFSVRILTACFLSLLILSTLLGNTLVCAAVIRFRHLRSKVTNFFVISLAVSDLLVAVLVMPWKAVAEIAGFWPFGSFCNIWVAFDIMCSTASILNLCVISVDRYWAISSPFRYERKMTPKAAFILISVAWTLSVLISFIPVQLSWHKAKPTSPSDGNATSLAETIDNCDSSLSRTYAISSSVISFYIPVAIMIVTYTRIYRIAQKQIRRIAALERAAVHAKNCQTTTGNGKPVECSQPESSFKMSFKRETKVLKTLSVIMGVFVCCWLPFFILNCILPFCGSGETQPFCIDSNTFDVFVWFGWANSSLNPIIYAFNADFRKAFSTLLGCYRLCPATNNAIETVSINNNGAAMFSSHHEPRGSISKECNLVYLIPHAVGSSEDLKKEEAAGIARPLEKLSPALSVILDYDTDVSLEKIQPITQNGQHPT

CCCCCCCC(CC(=O)O)OC(=O)CC(CCCCCCC)OC1OC(C)C(O)C(O)C1OC1OC(C)C(O)C(O)C1O (stereo not drawn) [Di-rhamnolipid W3CTS]
LD50 at 14 day (in vivo): 135 mg/kg
MTD at 14 day (in vivo): 120 mg/kg
gross abnormalities at necropsy [1]: no gross abnormalities
tail finding, higher dose groups [1]: scabbing and necrosis of tails
micronucleus test [2]: negative
Inhibition of LTC4 synthetase [3]: 81%
MORTAL. ([4]; 0.012 mg/kg/day s.c.): 0/3
SIGNIFICANT FINDINGS ([4]; 0.012 mg/kg/day s.c.): None
MORTAL. ([4]; 1.20 mg/kg/day s.c.): 0/3
SIGNIFICANT FINDINGS ([4]; 1.20 mg/kg/day s.c.): None
MORTAL. ([4]; 60 mg/kg/day s.c.): 0/3
Histopathology: extramedullary hematopoiesis (mice) ([4]; 120 mg/kg/day s.c.): mouse, extramedullary hematopoiesis in 2
Histopathology: thymic involution (mice) ([4]; 120 mg/kg/day s.c.): Histopathology: thymic involution in 1
Necroscopy findings: adhesions between the liver and the spleen, kidneys and peritoneum (mice) ([4]; 120 mg/kg/day s.c.): spleen, kidneys and peritoneum (1/3
MORTAL. ([4]; 120 mg/kg/day s.c.): 0/3
inhibition at 100 µM [5]: 53%
immunorestoration activity (survival of 30 percent or more considered significant) (C. albicans): possible very significant immunorestoration activity
inhibition at 100 µM [6]: 100%
